Reference: patent US20190117994A1, “METHODS USEFUL FOR REMODELING MAXILLOFACIAL BONE USING LIGHT THERAPY AND A FUNCTIONAL APPLIANCE” (Biolux Research Ltd., priority 2010, published 2019)

Assays:
[1] = daily oral supplement of 2,000 IU to 6,000 IU in adults, within 3 months; cited from earlier work
[2] = tested on: teeth and alveolar bone of an adult patient; assay: Example 3: orthodontic treatment with daily light and oral vitamin D3 supplementation; type: in vivo; details: passive (retention) phase, 2000 IU to 12,000 IU per day oral vitamin D3, light once per week at about 625 nm
Method: An adult patient is tested for Vitamin D3 blood serum levels at the same time as their routine orthodontic examination and records appointment. The patient's diagnosis is Class I mild crowding with 4 mm of crowding on the upper arch and 4 mm on the lower arch. An orthodontic treatment plan is formulated to include the installation of a fixed orthodontic appliance with some mild expansion of the upper and lower arches.
The patient self-administers oral oil-based vitamin D3 capsules of 6000 IU per day for 3 months to increase their vitamin D3 serum levels. Laboratory serum testing is optionally performed again after 3 months of vitamin D3 supplementation. The patient maintains or adjusts their oral dose of vitamin D3 based on their subsequent lab results.
Orthodontic treatment is started either after the 3 month period or anytime prior. The patient has conventional fixed orthodontic brackets, and bands placed on their teeth with an initial 0.016 inch NiTi wire tied in place with silcone ligatures. […]
At a passive state of orthodontic treatment, i.e., retention phase, a fixed retention orthodontic appliance is installed on the patient's teeth. […] The dosage can be determined based on vitamin D blood serum levels which can be measured periodically to determine dosing. […]

| Compound | blood levels of vitamin D [1] | alveolar bone density around the teeth [2] |
| --- | --- | --- |
| vitamin D | 40 ng/mL |  |
| C=C1CC[C@H](O)C/C1=C/C=C1\CCC[C@]2(C)[C@@H]([C@H](C)CCCC(C)C)CC[C@@H]12 [vitamin D3] |  | increased |
